Test results published in patent publication US9937151B2, “Carbapenem antibacterials with gram-negative activity” (priority 2010, dated 2018).
Values after ≈ are worked out from the molar mass of the structure shown.

Test system: G(−) bacterial strains
Test: Dilution antimicrobial susceptibility tests (MIC, NCCLS agar dilution / broth dilution)
Type: cell-based, Gram-negative organisms
Conditions: unit assumed
Experimental: The MIC (minimum inhibitory concentration) was determined by the NCCLS (National Committee for Clinical Laboratory Standards) methods 2000. Methods for dilution antimicrobial susceptibility testing for bacteria that growth aerobically (M7-A5, vol. 20, No. 2). The agar dilution method for determining antimicrobial susceptibility was carried out using Mueller-Hinton agar. A final inoculum of 10^4 CFU/spot was applied with an inoculation device. Broth dilution tests were performed with 5×10^5 CFU/well in 96 well plates. The susceptibilities of streptococci were determined by Mueller-Hinton agar supplemented with 5% sheep blood. All assays were run with the indicated control strains, available from the ATCC (American Type Culture Collection, Rockville, Md.).
Abbreviations used in Table 1 are defined as follows: Cf-R: Ceftazidime Resistance, Ci-R: Ciprofloxacin Resistance, Gen-R: Gentamycin Resistance, Imp-R: Imipenem Resistance, Mp-R: Meropenem Resistance, Ofx-R: Ofloxacin Resistance, B+: β-lactamase Production, AmpC: AmpC-lactamase Hyper production, CBPase: Carbapenemase Production.

[1] = strain #1 Acinetobacter calcoaceticus
[2] = strain #2 Acinetobacter baumannii, Cf-R, Ci-R
[3] = strain #3 Acinetobacter baumannii, Cf-R, Ci-R, Mp-I
[4] = strain #4 Acinetobacter baumannii, Cf-R, Imp-I, CBPase
[5] = strain #7 Enterobacter aerogenes
[6] = strain #8 Enterobacter cloacae, Cf-R, B+
[7] = strain #9 Enterobacter cloacae, Cf-R
[8] = strain #10 Escherichia coli, Ci-R
[9] = strain #11 Escherichia coli, Ci-R, AmpC
[10] = strain #15 Klebsiella pneumoniae
[11] = strain #16 Moraxella catarrhalis
[12] = strain #21 Providencia rettgeri
[13] = strain #22 Salmonella typhimurium
[14] = strain #25 Shigella dysenteriae
[15] = strain #28 Stenotrophomonas maltophilia
[16] = strain #29 Pseudomonas aeruginosa
[17] = strain #30 Pseudomonas aeruginosa
[18] = strain #31 Pseudomonas aeruginosa, Ofx-R
[19] = strain #32 Pseudomonas aeruginosa, Cf-R
[20] = strain #33 Pseudomonas aeruginosa, Ci-R
[21] = strain #34 Pseudomonas aeruginosa, Gen-R
[22] = strain #35 Pseudomonas aeruginosa, Ip-R
[23] = strain #36 Pseudomonas aeruginosa, Cf-R, Ci-R, Mp-R

`C[C@@H](O)C1C(=O)N2C(C(=O)O)=C(CN3CC[C@H](NC(N)=O)C3)[C@H](C)C12` (stereo partly drawn) [Compound 78] was tested, and the MIC [1] was 2 µg/mL (≈ 5.68 µM), the MIC [2] was 2 µg/mL (≈ 5.68 µM) and the MIC [3] was 4 µg/mL (≈ 11.4 µM). The MIC [4] was 4 µg/mL (≈ 11.4 µM), the MIC (strain #5 Citrobacter diversus) was 0.5 µg/mL (≈ 1.42 µM) and the MIC (strain #6 Citrobacter freundii) was 0.5 µg/mL (≈ 1.42 µM). The MIC [5] was 2 µg/mL (≈ 5.68 µM), the MIC [6] was 0.5 µg/mL (≈ 1.42 µM) and the MIC [7] was 1 µg/mL (≈ 2.84 µM). The MIC [8] was 0.5 µg/mL (≈ 1.42 µM), the MIC [9] was 0.5 µg/mL (≈ 1.42 µM) and the MIC (strain #12 Escherichia coli) was 0.5 µg/mL (≈ 1.42 µM). The MIC (strain #13 Escherichia coli) was 1 µg/mL (≈ 2.84 µM), the MIC (strain #14 Klebsiella oxytoca) was 1 µg/mL (≈ 2.84 µM) and the MIC [10] was 1 µg/mL (≈ 2.84 µM). The MIC [11] was 0.016 µg/mL (≈ 0.0454 µM), the MIC (strain #17 Morganella Morganii) was 8 µg/mL (≈ 22.7 µM) and the MIC (strain #18 Morganella Morganii) was 4 µg/mL (≈ 11.4 µM). It also gave an MIC (strain #19 Proteus vulgaris) of 4 µg/mL (≈ 11.4 µM), an MIC (strain #20 Proteus mirabilis) of 1 µg/mL (≈ 2.84 µM) and an MIC [12] of 4 µg/mL (≈ 11.4 µM). The MIC [13] was 1 µg/mL (≈ 2.84 µM), the MIC (strain #23 Serratia marcescens) was 2 µg/mL (≈ 5.68 µM) and the MIC (strain #24 Serratia marcescens) was 2 µg/mL (≈ 5.68 µM). The MIC [14] was 1 µg/mL (≈ 2.84 µM), the MIC (strain #26 Shigella sonnei) was 1 µg/mL (≈ 2.84 µM) and the MIC (strain #27 Shigella flexneri) was 0.5 µg/mL (≈ 1.42 µM). For the same molecule, the MIC [15] was 1 µg/mL (≈ 2.84 µM), the MIC [16] was 8 µg/mL (≈ 22.7 µM) and the MIC [17] was 8 µg/mL (≈ 22.7 µM). The MIC [18] was 2 µg/mL (≈ 5.68 µM), the MIC [19] was 16 µg/mL (≈ 45.4 µM) and the MIC [20] was 16 µg/mL (≈ 45.4 µM). For the same molecule, the MIC [21] was 16 µg/mL (≈ 45.4 µM), the MIC [22] was 16 µg/mL (≈ 45.4 µM) and the MIC [23] was greater than 32 µg/mL.

`C[C@@H](O)C1C(=O)N2C(C(=O)O)=C(CN3CC[C@H](NCC(N)=O)C3)[C@H](C)C12` (stereo partly drawn) [Compound 83] showed an MIC [1] of 2 µg/mL (≈ 5.46 µM), an MIC [2] of 4 µg/mL (≈ 10.9 µM) and an MIC [3] of 8 µg/mL (≈ 21.8 µM). It also gave an MIC [4] of 8 µg/mL (≈ 21.8 µM), an MIC (strain #5 Citrobacter diversus) of 0.5 µg/mL (≈ 1.36 µM) and an MIC (strain #6 Citrobacter freundii) of 1 µg/mL (≈ 2.73 µM). It also gave an MIC [5] of 4 µg/mL (≈ 10.9 µM), an MIC [6] of 0.5 µg/mL (≈ 1.36 µM) and an MIC [7] of 1 µg/mL (≈ 2.73 µM). It also gave an MIC [8] of 0.5 µg/mL (≈ 1.36 µM), an MIC [9] of 0.5 µg/mL (≈ 1.36 µM) and an MIC (strain #12 Escherichia coli) of 0.5 µg/mL (≈ 1.36 µM). The MIC (strain #13 Escherichia coli) was 1 µg/mL (≈ 2.73 µM), the MIC (strain #14 Klebsiella oxytoca) was 2 µg/mL (≈ 5.46 µM) and the MIC [10] was 1 µg/mL (≈ 2.73 µM). For the same molecule, the MIC [11] was 0.031 µg/mL (≈ 0.0846 µM), the MIC (strain #17 Morganella Morganii) was 8 µg/mL (≈ 21.8 µM) and the MIC (strain #18 Morganella Morganii) was 8 µg/mL (≈ 21.8 µM). It also gave an MIC (strain #19 Proteus vulgaris) of 4 µg/mL (≈ 10.9 µM), an MIC (strain #20 Proteus mirabilis) of 1 µg/mL (≈ 2.73 µM) and an MIC [12] of 4 µg/mL (≈ 10.9 µM). The MIC [13] was 1 µg/mL (≈ 2.73 µM), the MIC (strain #23 Serratia marcescens) was 2 µg/mL (≈ 5.46 µM) and the MIC (strain #24 Serratia marcescens) was 2 µg/mL (≈ 5.46 µM). The MIC [14] was 1 µg/mL (≈ 2.73 µM), the MIC (strain #26 Shigella sonnei) was 1 µg/mL (≈ 2.73 µM) and the MIC (strain #27 Shigella flexneri) was 0.5 µg/mL (≈ 1.36 µM). For the same molecule, the MIC [15] was 1 µg/mL (≈ 2.73 µM), the MIC [16] was 16 µg/mL (≈ 43.7 µM) and the MIC [17] was 16 µg/mL (≈ 43.7 µM). It also gave an MIC [18] of 8 µg/mL (≈ 21.8 µM), an MIC [19] of 16 µg/mL (≈ 43.7 µM) and an MIC [20] of 16 µg/mL (≈ 43.7 µM). For the same molecule, the MIC [21] was 32 µg/mL (≈ 87.3 µM), the MIC [22] was 32 µg/mL (≈ 87.3 µM) and the MIC [23] was greater than 32 µg/mL.

Work on `C[C@@H](O)C1C(=O)N2C(C(=O)O)=C(CN3CC[C@H](NC=N)C3)[C@H](C)C12` (stereo partly drawn) [Compound 84] yielded an MIC [1] of 0.25 µg/mL (≈ 0.743 µM), an MIC [2] of 0.5 µg/mL (≈ 1.49 µM) and an MIC [3] of 1 µg/mL (≈ 2.97 µM). It also gave an MIC [4] of 1 µg/mL (≈ 2.97 µM), an MIC (strain #5 Citrobacter diversus) of 0.25 µg/mL (≈ 0.743 µM) and an MIC (strain #6 Citrobacter freundii) of 0.5 µg/mL (≈ 1.49 µM). It also gave an MIC [5] of 1 µg/mL (≈ 2.97 µM), an MIC [6] of 0.25 µg/mL (≈ 0.743 µM) and an MIC [7] of 0.5 µg/mL (≈ 1.49 µM). For the same molecule, the MIC [8] was 0.25 µg/mL (≈ 0.743 µM), the MIC [9] was 0.25 µg/mL (≈ 0.743 µM) and the MIC (strain #12 Escherichia coli) was 0.25 µg/mL (≈ 0.743 µM). For the same molecule, the MIC (strain #13 Escherichia coli) was 0.5 µg/mL (≈ 1.49 µM), the MIC (strain #14 Klebsiella oxytoca) was 0.5 µg/mL (≈ 1.49 µM) and the MIC [10] was 0.5 µg/mL (≈ 1.49 µM). It also gave an MIC [11] of no more than 0.008 µg/mL, an MIC (strain #17 Morganella Morganii) of 4 µg/mL (≈ 11.9 µM) and an MIC (strain #18 Morganella Morganii) of 2 µg/mL (≈ 5.95 µM). It also gave an MIC (strain #19 Proteus vulgaris) of 1 µg/mL (≈ 2.97 µM), an MIC (strain #20 Proteus mirabilis) of 0.5 µg/mL (≈ 1.49 µM) and an MIC [12] of 2 µg/mL (≈ 5.95 µM). For the same molecule, the MIC [13] was 0.5 µg/mL (≈ 1.49 µM), the MIC (strain #23 Serratia marcescens) was 1 µg/mL (≈ 2.97 µM) and the MIC (strain #24 Serratia marcescens) was 1 µg/mL (≈ 2.97 µM). It also gave an MIC [14] of 0.5 µg/mL (≈ 1.49 µM), an MIC (strain #26 Shigella sonnei) of 0.5 µg/mL (≈ 1.49 µM) and an MIC (strain #27 Shigella flexneri) of 0.25 µg/mL (≈ 0.743 µM). The MIC [15] was 0.25 µg/mL (≈ 0.743 µM), the MIC [16] was 2 µg/mL (≈ 5.95 µM) and the MIC [17] was 2 µg/mL (≈ 5.95 µM). For the same molecule, the MIC [18] was 0.5 µg/mL (≈ 1.49 µM), the MIC [19] was 2 µg/mL (≈ 5.95 µM) and the MIC [20] was 2 µg/mL (≈ 5.95 µM). For the same molecule, the MIC [21] was 2 µg/mL (≈ 5.95 µM), the MIC [22] was 4 µg/mL (≈ 11.9 µM) and the MIC [23] was 16 µg/mL (≈ 47.6 µM).

`C[C@@H](O)C1C(=O)N2C(C(=O)O)=C(CN3CC(NC(=N)N)C3)[C@H](C)C12` (stereo partly drawn) [Compound 89] showed an MIC [1] of 0.13 µg/mL (≈ 0.385 µM), an MIC [2] of 1 µg/mL (≈ 2.96 µM) and an MIC [3] of 1 µg/mL (≈ 2.96 µM). For the same molecule, the MIC [4] was 0.5 µg/mL (≈ 1.48 µM), the MIC (strain #5 Citrobacter diversus) was 0.13 µg/mL (≈ 0.385 µM) and the MIC (strain #6 Citrobacter freundii) was 0.25 µg/mL (≈ 0.741 µM). For the same molecule, the MIC [5] was 1 µg/mL (≈ 2.96 µM), the MIC [6] was 0.13 µg/mL (≈ 0.385 µM) and the MIC [7] was 0.25 µg/mL (≈ 0.741 µM). For the same molecule, the MIC [8] was 0.13 µg/mL (≈ 0.385 µM), the MIC [9] was 0.13 µg/mL (≈ 0.385 µM) and the MIC (strain #12 Escherichia coli) was 0.13 µg/mL (≈ 0.385 µM). The MIC (strain #13 Escherichia coli) was 0.25 µg/mL (≈ 0.741 µM), the MIC (strain #14 Klebsiella oxytoca) was 0.5 µg/mL (≈ 1.48 µM) and the MIC [10] was 0.25 µg/mL (≈ 0.741 µM). The MIC [11] was no more than 0.008 µg/mL, the MIC (strain #17 Morganella Morganii) was 2 µg/mL (≈ 5.93 µM) and the MIC (strain #18 Morganella Morganii) was 2 µg/mL (≈ 5.93 µM). For the same molecule, the MIC (strain #19 Proteus vulgaris) was 0.5 µg/mL (≈ 1.48 µM), the MIC (strain #20 Proteus mirabilis) was 0.25 µg/mL (≈ 0.741 µM) and the MIC [12] was 1 µg/mL (≈ 2.96 µM). The MIC [13] was 0.25 µg/mL (≈ 0.741 µM), the MIC (strain #23 Serratia marcescens) was 0.5 µg/mL (≈ 1.48 µM) and the MIC (strain #24 Serratia marcescens) was 0.5 µg/mL (≈ 1.48 µM). It also gave an MIC [14] of 0.25 µg/mL (≈ 0.741 µM), an MIC (strain #26 Shigella sonnei) of 0.25 µg/mL (≈ 0.741 µM) and an MIC (strain #27 Shigella flexneri) of 0.13 µg/mL (≈ 0.385 µM). It also gave an MIC [15] of 0.13 µg/mL (≈ 0.385 µM), an MIC [16] of 1 µg/mL (≈ 2.96 µM) and an MIC [17] of 1 µg/mL (≈ 2.96 µM). For the same molecule, the MIC [18] was 0.5 µg/mL (≈ 1.48 µM), the MIC [19] was 1 µg/mL (≈ 2.96 µM) and the MIC [20] was 1 µg/mL (≈ 2.96 µM). The MIC [21] was 1 µg/mL (≈ 2.96 µM), the MIC [22] was 4 µg/mL (≈ 11.9 µM) and the MIC [23] was 8 µg/mL (≈ 23.7 µM).
